Converted amounts (≈) assume the structure as drawn.

A short description of data set [1]: Solubility test of dutasteride and tadalafil in oils. The conditions noted are these: for solubility in a general oil: castor oil or soybean oil; for solubility at 24 h: oil or lipid, thermodynamic from solid; for solubility at 24 h / Solubility: room temperature, stirring for 24 hours. In kind it is physicochemical. How it is done: In order to determine the solubility of dutasteride and tadalafil in oils, the solubilities to soybean oil, castor oil, glycerol monooleate, glycerol caprylate/caprate, propylene glycol monocaprylate and propylene glycol monolaurate were measured. A magnetic bar was placed in a 10 ml, vial, and 3 ml, of oil was added thereto. Then, while the mixture was stirred at room temperature, 100 mg of the main component was added thereto and the mixture was stirred at 500 rpm or higher. After stirring for 24 hours, only a supernatant was taken by a centrifugal separator, and an amount of the main component dissolved in the oil phase was quantitated by using a liquid chromatograph.

Experiment in data set [2]: as above
In kind it is physicochemical. The conditions noted are these: room temperature, stirring for 24 hours; for solubility at 24 h: oil or lipid, thermodynamic from solid.

Setting [3] is: in glycerol caprylate/caprate, glycerol monooleate, propylene glycol monocaprylate and propylene glycol monolaurate.
[4] abbreviates: in glycerol fatty acid ester derivative or propylene glycol fatty acid ester derivative as oil component.

`CN1CC(=O)N2[C@H](c3ccc4c(c3)OCO4)c3[nH]c4ccccc4c3C[C@@H]2C1=O` [tadalafil, 6R-trans-6-(1,3-benzodioxol-5-yl)-2,3,6,7,12,12a-hexahydro-2-methyl-pyrazino [1′,2′:1,6] pyrido[3,4-b]indole-1,4-dione]: the “solubility in a general oil” value in data set [1] is reported as “low”. For the same compound, the solubility – broadly, the dissolved amount per volume that the medium holds – at 24 h in data set [1] (glycerol caprylate/caprate (oil), solvent Glycerol caprylate/caprate) came out at 4130 µg/mL (≈ 10600 µM); in data set [1] (glycerol monooleate (oil), solvent Glycerol monooleate), 1110 µg/mL (≈ 2850 µM); in data set [1] (solvent Castor oil), 1030 µg/mL (≈ 2650 µM); in data set [1] (solvent Soybean oil) it was 240 µg/mL (≈ 616 µM); in data set [1] (propylene glycol dicaprate (oil), solvent Propylene glycol dicaprate) it was 270 µg/mL (≈ 693 µM); in data set [1] (propylene glycol monocaprylate (oil), solvent Propylene glycol monocaprylate), 4090 µg/mL (≈ 10500 µM). Moreover, the solubility at 24 h stood at 1030 µg/mL (≈ 2650 µM) in data set [1] (propylene glycol monolaurate (oil), solvent Propylene glycol monolaurate); 400 µg/mL (≈ 1030 µM) in data set [2] (glycerol tricaprylate (oil), solvent Glycerol tricaprylate); 440 µg/mL (≈ 1130 µM) in data set [2] (propylene glycol dicaprylate (oil), solvent Propylene glycol dicaprylate). Moreover, the “solubility of tadalafil relative to that of dutasteride” value in data set [1] (setting [3]) is reported as “⅓”. In data set [1] (setting [4]), the “solubility of tadalafil relative to the solubility of dutasteride” value is given as “½”.
Regarding “17β-N-(2,5-bis (trifluoromethyl)) phenylcarbamoyl-4-aza-5α-androst-1-en-3-one [dutasteride]”, the “solubility in a general oil” value in data set [1] is recorded as “low”. The solubility of dutasteride was not below 2500 µg/mL in data set [1] (setting [3]) and not below 1000 µg/mL in data set [1] (setting [4]). In addition, the Solubility (as a rule, the dissolved amount per volume that the medium holds) came to 1500 µg/mL in data set [1] (solvent Castor oil); 14340 µg/mL in data set [1] (solvent Glycerol caprylate/caprate); 4580 µg/mL in data set [1] (solvent Glycerol monooleate); 770 µg/mL in data set [1] (solvent Propylene glycol dicaprate); 1130 µg/mL in data set [1] (solvent Propylene glycol dicaprylate); 20980 µg/mL in data set [1] (solvent Propylene glycol monocaprylate). Besides, the Solubility came to 9340 µg/mL in data set [1] (solvent Propylene glycol monolaurate) and 840 µg/mL in data set [2] (solvent Glycerol tricaprylate).

The record behind these values is US20190216827A1, “Composite Formulation of Dutasteride and Tadalafil Comprising Glycerol Fatty Acid Ester Derivative or Propylene Glycol Fatty Acid Ester Derivative and Oral Capsule Formulation Comprising the Same” (Yuyu Pharma, Inc., priority 2016, published 2019).
